This note sets out measurements from patent publication US20110263693A1, “CELASTROL, GEDUNIN, AND DERIVATIVES THEREOF AS HSP90 INHIBITORS” (DANA-FARBER CANCER INSTITUTE, INC., priority 2006, published 2011).

The subject of assay [1] is LNCaP cells. Kind of assay: Soft agar assay of anchorage-independent growth. It counts as cell-based. The conditions noted are these: for colony size in soft agar: LNCaP; for anchorage-independent growth of LNCaP cells (colony number): soft agar, celastrol 0.625 μM, compared with bicalutamide (casodex). The protocol:
(§1) To investigate the cellular consequences of celastrol- and gedunin-mediated inhibition, we assessed whether celastrol and gedunin activity results in decreased cell growth, consistent with AR inhibition. […] Second, the compounds' effects on anchorage-independent growth of LNCaP cells was assayed in soft agar (FIG. 6D).
(§2) Adherent cell growth was measured by luminescent assay of ATP level (CellTiterGlo, Promega). LNCaP cells were grown in charcoal-stripped media for 2 days prior to simultaneous treatment with 1 nM R1881 and the relevant compound. Synergy was assessed by analyzing the IC50 of one drug over a range of concentrations of the other drug and vice versa. The resulting concentration pairs were visualized by isobologram (Gessner, 1995). Anchorage independence was measured by soft agar assay (Hahn et al., 1999). Compounds were added to both agar layers. Colonies were scored after 3 weeks.

The next assay concerns BCR-ABL1. The assay is described as follows: Western blot of HSP90 client BCR-ABL1 level. Conditions: for protein level of BCR-ABL1: 24 hr, several cell lines, concentration-dependent. It counts as cell-based, human. The protocol: To more broadly establish the effects of celastrol and gedunin on the HSP90 pathway, we tested whether these compounds decrease the protein levels of other HSP90 clients.
Celastrol (Calbiochem) and gedunin (Gaia Chemicals) were solubilized in DMSO. LNCaP.FGC cells (ATCC) were grown in RPMI 1640 (ATCC) with 10% FBS. Ba/F3 cells stably expressing human FLT3, EGFR, and BCR-ABL1 were grown in RPMI 1640, 10% FBS, and 2 ng/ml IL-3. SKBr3 cells were grown in a 1:1 DME:F12 plus 10% FBS.

In assay [2] the test system is LNCaP prostate cancer cell. Kind of assay: Apoptosis induction in LNCaP cells. In kind it is cell-based. Conditions: at higher concentrations. An excerpt: (§3) We also addressed whether celastrol and gedunin activity results in decreased cell growth consistent with inhibition of AR and other HSP90 clients. […] Below this concentration, an intermediate viability inhibition is seen.

Assay [3] deals with HSP90 interaction with the cochaperone p23. Kind of assay: HSP90 coimmunoprecipitation, p23. It counts as cell-based. The conditions noted are these: SKBR-3 cells; celastrol 2.5 μM, 12 hr. How it is done: Geldanamycin and other HSP90 inhibitors are known to inhibit p23 association with HSP90 (Felts et al., 2003).
SKBR-3 cells were treated with vehicle, celastrol (2.5 μM, 12 hr), and PU24FCI (20 μM, 24 hr) (Vilenchik et al., 2004). Cells were lysed in 20 mM Tris HCl (pH 7.4), 25 mM NaCl, 2 mM DDT, 20 mM Na2MoO4, 0.1% NP-40, and […]. Lysates were incubated for 2 hr at 4° C., rotating, and then centrifuged at 13,000×g for 10 min. Protein (500 μg) was incubated with H9010 anti-HSP90 antibody for 1 hr at 4° C., rotating. Protein G agarose (30 μl; Upstate) was added to each sample, and samples were then incubated for 1 hr at 4° C., rotating. The beads were washed five times with 1 ml lysis buffer. Bound proteins were isolated by boiling in sample buffer. The levels of HSP90 and coimmunoprecipitating proteins were analyzed by western blot.

Assay [4] has as its system SKBR breast cancer cell line. The assay is described as follows: Apoptosis induction in SKBR cells. In kind it is cell-based. The conditions noted are these: to a greater extent than existing HSP90 ATP binding site inhibitors.
Assay [5] concerns LNCaP cells. Kind of assay: Adherent cell growth by luminescent assay of ATP level (CellTiterGlo). In kind it is cell-based. Conditions: for LNCaP cell viability at higher concentrations: in the presence of androgen, above EC50 of androgen signaling inhibition; for adherent growth of androgen-stimulated LNCaP cells: luminescent assay of ATP levels. The protocol:
as §1, §2, §3
A general note: Cellular ATP, detected with luciferase, serves as a proxy for viable cell number.

Assay [6] relates to androgen-responsive gene expression in LNCaP cells. Kind of assay: Genome-wide gene expression profiling with hierarchical clustering of androgen-responsive genes. The conditions noted are these: androgen-stimulated LNCaP, celastrol 1.25 μM, gedunin 20 μM, 24 hr. It counts as cell-based. The protocol: We next asked whether celastrol and gedunin inhibit the broader program of androgen signaling beyond the GE-HTS signature. To address this question, we compared the genome-wide gene expression profiles of androgen-stimulated LNCaP cells treated with celastrol (1.25 μM) and gedunin (20 μM) for 24 hr to those of androgen-stimulated and androgen-deprived cells.
The mRNA expression profiles of celastrol- and gedunin-treated cells were determined by Affymetrix U133A microarray analysis in triplicate. RNA was isolated by Trizol extraction from LNCaP cells treated with vehicle, 1.25 μM celastrol, or 20 μM gedunin (1) for 24 hr in RPMI, 10% charcoal-stripped FBS, and 1 nM R1881 or vehicle, following androgen deprivation in charcoal-stripped media for 2 days, and (2) for 6 hr in RPMI with 10% FBS. IVT, labeling, hybridization, and washing were carried out on the Affymetrix High-Throughput Array platform using HT_HG-U133A preproduction arrays (early access version; part number 520276) for all but the 24 hr gedunin samples. U133A version 2 arrays were used for the 24 hr gedunin samples for technical reasons. Raw data were processed by RMA. For hierarchical clustering, a 169 probe set of androgen-regulated genes was defined and used to perform average linkage clustering (see below). […]

Take `CC1=C(O)C(=O)C=C2C1=CC=C1[C@@]2(C)CC[C@@]2(C)[C@@H]3C[C@](C)(C(=O)O)CC[C@]3(C)CC[C@]12C` [celastrol]: in the assay with LNCaP cells [1], the “colony size in soft agar” value is reported as “inhibited colony size” and the “anchorage-independent growth of LNCaP cells (colony number)” value is recorded as “inhibited anchorage-independent growth to a similar degree as the AR competitive antagonist bicalutamide (casodex)”. Further, in the assay with BCR-ABL1, the “protein level of BCR-ABL1” value is given as “lowered the protein levels”. For the same molecule, the “apoptosis in LNCaP cells” value in assay [2] was “induce apoptosis”. In assay [3], the “HSP90 interaction with cochaperone p23 (coimmunoprecipitation)” value is recorded as “reduced HSP90 interaction with the cochaperone p23”. The “apoptosis in SKBR breast cancer cell line” value in assay [4] is reported as “induct apoptosis”. In addition, in the assay on LNCaP cells [5], the “LNCaP cell viability at higher concentrations” value is on record as “markedly decrease LNCaP prostate cancer cell viability”; the “adherent growth of androgen-stimulated LNCaP cells” value was “inhibit adherent and anchorage-independent growth”. Also, the “broader program of androgen signaling (genome-wide expression, hierarchical clustering)” value in assay [6] was “invoked a broader gene expression program similar to that induced by androgen deprivation”.

Regarding `CC(=O)O[C@@H]1C[C@H]2C(C)(C)C(=O)C=C[C@]2(C)[C@H]2CC[C@@]3(C)[C@H](c4ccoc4)OC(=O)[C@H]4O[C@]43[C@@]21C` [gedunin], in the assay with LNCaP cells [1], the “colony size in soft agar” value was “inhibited colony size” and the “anchorage-independent growth of LNCaP cells (colony number)” value is “inhibited anchorage-independent growth to a similar degree as the AR competitive antagonist bicalutamide (casodex)”. The “protein level of BCR-ABL1” value in the assay with BCR-ABL1 is given as “lowered the protein levels”. Further, the “sensitivity of BCR-ABL T315I point mutant to inhibition” value in the assay with BCR-ABL1 (Ba/F3 cells, relative to non-mutant) is “increased sensitivity”. Besides, in assay [2], the “apoptosis in LNCaP cells” value is “induce apoptosis”. Further, the “apoptosis in SKBR breast cancer cell line” value in assay [4] was “induct apoptosis”. In the assay with LNCaP cells [5], the “LNCaP cell viability at higher concentrations” value is listed as “markedly decrease LNCaP prostate cancer cell viability”; the “adherent growth of androgen-stimulated LNCaP cells” value was “inhibit adherent and anchorage-independent growth”. For the same molecule, the “broader program of androgen signaling (genome-wide expression, hierarchical clustering)” value in assay [6] was “invoked a broader gene expression program similar to that induced by androgen deprivation”.
